In ChEMBL document CHEMBL1143809, “New bis-N9-(methylphenylmethyl)purine derivatives: synthesis and antitumor activity” (2007):

Tests used:
Format in all cases: functional
OVCAR-8 = assay: Growth inhibition of human OVCAR8 cells after 48 hrs by SRB protein assay; conditions: OVCAR-8, 48 h
SF-539 = assay: Growth inhibition of human SF539 cells after 48 hrs by SRB protein assay; conditions: SF-539, 48 h
[1] = Growth inhibition of human NCL-H322M cells after 48 hrs by SRB protein assay
MOLT-4 = assay: Growth inhibition of human MOLT4 cells after 48 hrs by SRB protein assay; conditions: MOLT-4, 48 h
HCT-116 = assay: Growth inhibition of human HCT116 cells after 48 hrs by SRB protein assay; conditions: HCT-116, 48 h
DU-145 = assay: Growth inhibition of human DU145 cells after 48 hrs by SRB protein assay; conditions: DU-145, 48 h
CCRF-CEM = assay: Growth inhibition of human CCRF-CEM cells after 48 hrs by SRB protein assay
IGROV-1 = assay: Growth inhibition of human IGROV1 cells after 48 hrs by SRB protein assay; conditions: IGROV-1, 48 h
SF-295 = assay: Growth inhibition of human SF295 cells after 48 hrs by SRB protein assay; conditions: SF-295, 48 h
SN12C = assay: Growth inhibition of human SN12C cells after 48 hrs by SRB protein assay
MCF7 [2] = assay: Anticancer activity against human MCF7 cells assessed as growth at 100 uM after 48 hrs by SRB protein assay relative to control; conditions: MCF7, 48 h, read-out: Activity
NCI-H460 [3] = assay: Growth inhibition of human NCL-H460 cells after 48 hrs by SRB protein assay; conditions: NCI-H460, 48 h
ACHN = assay: Growth inhibition of human ACHN cells after 48 hrs by SRB protein assay
SF-268 = assay: Anticancer activity against human SF268 cells assessed as growth at 100 uM after 48 hrs by SRB protein assay relative to control; conditions: SF-268, 48 h, read-out: Activity
SNB-19 = assay: Growth inhibition of human SNB19 cells after 48 hrs by SRB protein assay; conditions: SNB-19, 48 h
MCF7 [4] = assay: Growth inhibition of human MCF7 cells after 48 hrs by SRB protein assay; conditions: MCF7, 48 h
TK-10 = assay: Growth inhibition of human TK10 cells after 48 hrs by SRB protein assay; conditions: TK-10, 48 h
HOP-92 = assay: Growth inhibition of human HOP92 cells after 48 hrs by SRB protein assay; conditions: HOP-92, 48 h
A549 = assay: Growth inhibition of human A549 cells after 48 hrs by SRB protein assay; conditions: A549, 48 h
NCI/ADR-RES = assay: Growth inhibition of human NCI/ADR-RES cells after 48 hrs by SRB protein assay
NCI-H460 [5] = assay: Anticancer activity against human NCL-H460 cells assessed as growth at 100 uM after 48 hrs by SRB protein assay relative to control; conditions: NCI-H460, 48 h, read-out: Activity
[6] = Growth inhibition of human NCL-H226 cells after 48 hrs by SRB protein assay; conditions: NCL-H226, 48 h
EKVX = assay: Growth inhibition of human EKVX cells after 48 hrs by SRB protein assay
SK-MEL-28 = assay: Growth inhibition of human SK-MEL-28 cells after 48 hrs by SRB protein assay; conditions: SK-MEL-28, 48 h
UO-31 = assay: Growth inhibition of human UO31 cells after 48 hrs by SRB protein assay; conditions: UO-31, 48 h
BT-549 = assay: Growth inhibition of human BT549 cells after 48 hrs by SRB protein assay; conditions: BT-549, 48 h
SK-MEL-2 = assay: Growth inhibition of human SK-MEL-2 cells after 48 hrs by SRB protein assay; conditions: SK-MEL-2, 48 h
Hs-578T = assay: Growth inhibition of human HS578T cells after 48 hrs by SRB protein assay
K562 = assay: Growth inhibition of human K562 cells after 48 hrs by SRB protein assay; conditions: K562, 48 h
OVCAR-5 = assay: Growth inhibition of human OVCAR5 cells after 48 hrs by SRB protein assay; conditions: OVCAR-5, 48 h
T47D = assay: Growth inhibition of human T47D cells after 48 hrs by SRB protein assay
MDA-MB-435 = assay: Growth inhibition of human MDA-MB-435 cells after 48 hrs by SRB protein assay; conditions: MDA-MB-435, 48 h
OVCAR-3 = assay: Growth inhibition of human OVCAR-3 cells after 48 hrs by SRB protein assay; conditions: OVCAR-3, 48 h
[7] = Growth inhibition of human NCL-H522 cells after 48 hrs by SRB protein assay; conditions: NCL-H522, 48 h
[8] = read-out: LC50 (the source's name)

Compound: Clc1nc(Cl)c2ncn(Cc3ccccc3Cn3cnc4c(Cl)nc(Cl)nc43)c2n1
- GI50 (OVCAR-8): 3.02 µM
- LC50 (OVCAR-8): 49 µM
- TGI (OVCAR-8): 8.13 µM
- LC50 (SF-539): 490 nM
- TGI (SF-539): 140 nM
- GI50 [1]: 14.5 µM
- TGI [1]: 27.5 µM
- CC50 [1, 8]: 52.5 µM
- GI50 (MOLT-4): 1660 nM
- LC50 (MOLT-4): 8.13 µM
- TGI (MOLT-4): 3.63 µM
- GI50 (HCT-116): 3.31 µM
- TGI (HCT-116): 13.8 µM
- CC50 (HCT-116; [8]): > 100 µM
- GI50 (DU-145): 1000 nM
- TGI (DU-145): 2510 nM
- CC50 (DU-145; [8]): 6.46 µM
- GI50 (CCRF-CEM): 1410 nM
- TGI (CCRF-CEM): 3.09 µM
- CC50 (CCRF-CEM; [8]): 6.61 µM
- GI50 (IGROV-1): 5.25 µM
- LC50 (50% lethal concentration) (IGROV-1): 57.5 µM
- TGI (IGROV-1): 17.8 µM
- GI50 (SF-295): 15.1 µM
- LC50 (SF-295): 57.3 µM
- TGI (SF-295): 28.2 µM
- GI50 (SN12C): 2510 nM
- LC50 (SN12C): 26.9 µM
- TGI (SN12C): 6.61 µM
- growth at 100 µM (MCF7 [2]): 0%
- GI50 (NCI-H460 [3]): 3.98 µM
- TGI (NCI-H460 [3]): 17.4 µM
- CC50 (NCI-H460 [3]; [8]): 89.1 µM
- GI50 (ACHN): 1770 nM
- LC50 (ACHN): 5.75 µM
- TGI (ACHN): 3.24 µM
- growth at 100 µM (SF-268): 0%
- GI50 (SNB-19): 3.98 µM
- TGI (SNB-19): > 100 µM
- CC50 (SNB-19; [8]): > 100 µM
- GI50 (MCF7 [4]): 1550 nM
- LC50 (MCF7 [4]): > 100 µM
- TGI (MCF7 [4]): 4.57 µM
- GI50 (TK-10): 2690 nM
- LC50 (50% lethal concentration) (TK-10): 28.8 µM
- TGI (TK-10): 7.94 µM
- GI50 (HOP-92): 1910 nM
- LC50 (HOP-92): 9.12 µM
- TGI (HOP-92): 4.17 µM
- GI50 (A549): 4.79 µM
- LC50 (A549): > 100 µM
- TGI (A549): 20.4 µM
- GI50 (NCI/ADR-RES): 20.4 µM
- LC50 (NCI/ADR-RES): 91.2 µM
- TGI (NCI/ADR-RES): 43.6 µM
- growth at 100 µM (NCI-H460 [5]): 0%
- GI50 [6]: 3.09 µM
- LC50 [6]: 26.9 µM
- TGI [6]: 7.24 µM
- GI50 (EKVX): 1020 nM
- LC50 (EKVX): 6.76 µM
- TGI (EKVX): 2630 nM
- GI50 (SK-MEL-28): 3.98 µM
- LC50 (SK-MEL-28): > 100 µM
- TGI (SK-MEL-28): 24.6 µM
- GI50 (UO-31): 1950 nM
- LC50 (UO-31): 7.41 µM
- TGI (UO-31): 3.8 µM
- GI50 (BT-549): 170 nM
- TGI (BT-549): 1510 nM
- CC50 (BT-549; [8]): 5.01 µM
- GI50 (SK-MEL-2): 6.31 µM
- TGI (SK-MEL-2): 26.9 µM
- CC50 (SK-MEL-2; [8]): > 100 µM
- GI50 (Hs-578T): 3.09 µM
- LC50 (concentration killing 50% of cells) (Hs-578T): > 100 µM
- TGI (Hs-578T): 11.2 µM
- GI50 (K562): 1950 nM
- TGI (K562): 4.47 µM
- CC50 (K562; [8]): 15.5 µM
- GI50 (OVCAR-5): 20.9 µM
- TGI (OVCAR-5): 38 µM
- CC50 (OVCAR-5; [8]): 70.8 µM
- GI50 (T47D): 2190 nM
- LC50 (T47D): > 100 µM
- TGI (T47D): 5.89 µM
- GI50 (MDA-MB-435): 2400 nM
- LC50 (MDA-MB-435): 17.4 µM
- TGI (MDA-MB-435): 5.5 µM
- GI50 (OVCAR-3): 1660 nM
- LC50 (OVCAR-3): 5.5 µM
- TGI (OVCAR-3): 3.02 µM
- GI50 [7]: 3.39 µM
- LC50 [7]: > 100 µM
- TGI [7]: 9.12 µM
